# Reference: patent US12208164B2, “Modular metal-organic polyhedra superassembly compositions” (UNM Rainforest Innovations, priority 2019, dated 2025)
# System: A549 cells
# Assay: Targeted cell killing efficacy, viability of A549 cells
# Assay type: cell-based, human
# Settings: incubated 2 hours, series of concentrations
# Method: Cell viability of the constructed nanocarriers was assessed by CellTiter-Glo 2.0 assay. […] Then, 100 μL of the samples was added into a white 96-well plate. Subsequently, 100 μL CellTiter-Glo 2.0 reagent was dispensed into each well. The luminescence was recorded 10 minutes after addition of CellTiter-Glo 2.0 reagent by a BioTek microplate reader. Cell viability was calculated as a percentage of mammalian cells in the absence of nanocarriers.
smiles,measurement,value
"COc1cccc2c1C(=O)c1c(O)c3c(c(O)c1C2=O)C[C@@](O)(C(=O)CO)C[C@@H]3O[C@H]1C[C@H](N)[C@H](O)[C@H](C)O1 [free DOX, doxorubicin]",toxicity to A549 cells,dose-dependent toxicity
